Data: US9737622B2, “Compounds modulators of VEGF activity and uses thereof” (ADVANCED ACCELERATOR APPLICATIONS S.A., priority 2009, dated 2017)
Entries after “also recorded” stand apart in the source; their conditions may differ. Bridge positions count the residues as written; N and C are the ends. Ends that are not written are not given here.

What was measured:
[1] = tested on: VEGF receptors; assay: Biological and in vivo assays, summary of angiogenic activity; settings: summary statement
From the text: The compounds have application in diagnosis and treatment of pathologies depending on angiogenesis, especially they can be used in therapy of […].

[2] = tested on: HUVEC cells; assay: Caspase 3 fluorimetric assay in serum-starved HUVEC; assay type: cell-based, human; settings: for effect of VEGF on caspase-3 activity (rescue) when peptide is added: in presence of VEGF, 8 hours
Protocol: Determination of caspase-3 activity was performed by a fluorometric assay based on the proteolytic cleavage of the AMC-derived substrate N-acetil-DEVD-AMC, which yields a fluorescent product.
HUVEC cells were plated in 6-well dishes at 1×10^5 cells/cm^2. On the next day, cells were treated, in starvation medium (EBM-2, heparin 0.1%, BSA 0.1%), with Pep #3 (25-100 ng/ml) or scrambled Pep RND (100 ng/ml) peptides for 8 h at 37° C. VEGF165 (R & D Systems, Minneapolis, Minn., USA), 25 ng/ml, was used as positive control.
After 8 h the cells were processed with 150 μl of Caspase-3 reaction buffer (HEPES pH 7.5 50 mM, EDTA 0.1 mM, NP-40 0.1%, CHAPS 0.1%, DTT 1 mM) and cell proteins collected after centrifugation at 13000 rpm for 15 min at 4° C. Protein concentrations were determined by Bradford method (Bio-Rad, Hercules, Calif.) and 20 μg of lysates were incubated in 96-well plates with 20 μM N-acetil-DEVD-AMC at 37° C. for 3 h.
Samples were analyzed using a microplate reader (L55 Luminescence Spectometrer Perkin Elmer Instruments) (excitation: 360 nm, emission: 440 nm).
To investigate the biological activity of the designed peptides the authors analyzed the activation of caspase 3 in human primary endothelial (HUVEC) cells serum-deprived by means of a caspase-3 fluorimetric assay. It is well known that VEGF act as survival factor for ECs. […] Experiments were performed on serum starved HUVEC treated with designed peptides in presence or absence of VEGF in order to highlight an antagonist or agonist (VEGF-like) activity respectively. The biological activity of the analyzed compounds is reported as percentage of VEGF rescue (FIG. 1). The decrease of the caspase-3 activity following VEGF incubation is set to 100% rescue.

[3] = tested on: ERK1/2; assay: Western blot of phospho ERK1/2 in HUVEC; assay type: cell-based, human
Protocol: Cells were plated in 12-well dishes at 1×10^5 cells/cm^2. On the next day, cells were treated, in starvation medium (EBM-2, heparin 0.1%, BSA 0.1%) with Pep #3 (25-100 ng/ml) or Pep RND (100 ng/ml) peptides for 15 min and 30 min at 37° C. VEGF165 (R & D Systems, Minneapolis, Minn., USA) 25 ng/ml was used as positive control. After treatment, whole cell lysates were obtained by using RIPA lysis buffer (Tris 50 mM pH 7.5, NaCl 150 mM, NP-40 1%, EGTA 1 mM, SDS 0.05%) supplemented with Complete Protease Inhibitors and Phosphate Inhibitors (Pierce Biotechnology, Rockford, Ill.). Cell proteins were then collected after centrifugation and protein content was determined by Bradford method (Bio-Rad, Hercules, Calif.). Proteins were separated by electrophoresis on SDS-polyacrylamide gels and transferred to nitrocellulose membrane (Millipore Corp., Bedford, Mass.) by semi-dry electroblotting (Transblot; Bio-Rad Laboratories, Hercules, Calif.).
The serine-tyrosine-phosphorilated ERK1/2 (polyclonal antibody, Cell Signaling Technology, Inc. Danvers, Mass., USA) and aGAPDH (monoclonal antibody 6C5, Santa Cruz Biotechnology, Inc., Santa Cruz, Calif.) were visualized by specific antibodies, anti-rabbit and anti-mouse horseradish peroxidase-conjugated secondary antibody (Jackson Immunoresearch Laboratories, Inc, Baltimor Pike; Pa., USA) standard chemiluminescence (Pierce Biotechnology, Rockford, Ill.).
VEGF-modulated angiogenesis is largely ERK1/2-dependent, leading to DNA synthesis and cell proliferation. […] The authors therefore investigated whether peptide #3 could also induce ERK and AKT activation like VEGF. […] Scrambled Pep-RND had no effect on ERK1/2 and AKT activation, proving that it is unable to activate intracellular signaling (FIG. 2A).

[4] = tested on: AKT; assay: Western blot of phospho AKT in HUVEC; assay type: cell-based, human; settings: serum deprivation, 15 and 30 min, peptide #3 25-100 ng/ml, Pep-RND 100 ng/ml
Protocol: Cells were plated in 12-well dishes at 1×10^5 cells/cm^2. On the next day, cells were treated, in starvation medium (EBM-2, heparin 0.1%, BSA 0.1%) with Pep #3 (25-100 ng/ml) or Pep RND (100 ng/ml) peptides for 15 min and 30 min at 37° C. VEGF165 (R & D Systems, Minneapolis, Minn., USA) 25 ng/ml was used as positive control. After treatment, whole cell lysates were obtained by using RIPA lysis buffer (Tris 50 mM pH 7.5, NaCl 150 mM, NP-40 1%, EGTA 1 mM, SDS 0.05%) supplemented with Complete Protease Inhibitors and Phosphate Inhibitors (Pierce Biotechnology, Rockford, Ill.). Cell proteins were then collected after centrifugation and protein content was determined by Bradford method (Bio-Rad, Hercules, Calif.). Proteins were separated by electrophoresis on SDS-polyacrylamide gels and transferred to nitrocellulose membrane (Millipore Corp., Bedford, Mass.) by semi-dry electroblotting (Transblot; Bio-Rad Laboratories, Hercules, Calif.). […]

[5] = tested on: blood vessel development; assay: Directed In Vivo Angiogenesis Angioreactor (DIVAA); design: species or system CD1 mice; settings: mice, 21 days
Protocol: Female CD1 mice (20-25 g) were supplied by Charles-River (Italy) and kept in temperature- and humidity-controlled rooms (22° C., 50%) with lights on from 07:00 to 19:00 h, water and food available ad libitum. All procedures were carried out in accordance with the Italian law (Legislative Decree no. 116, 27 Jan. 1992), which acknowledges the European Directive 86/609/EEC, and were fully compliant with GlaxoSmithKline policy on the care and use of laboratory animal and codes of practice. Furthermore, all efforts were made to minimize the number of animals used and their suffering.
Sterile silicone cylinders closed at one end, called angioreactors (Cultrex, Trevigen, Inc. Helgerman Conn., Gaithersburg), were filled with 20 μL of basement membrane extract (BME) premixed with or without angiogenesis factors (VEGF, FGF) to obtain positive and negative controls respectively. […]
Vessel formation evaluation was performed after 21 days. […] Subsequently, cells were incubated with FITC-Lectin reagent (available in the kit) and then observed by fluorescence microscope (ZEISS, German).
Pro-angiogenic peptide #3 activity was also assayed in an in vivo test using DIVAA (Directed in Vivo Angiogenesis Angioreactor). DIVAA test is performed by implanting angioreactors into the dorsal flank of mice; this allows a quantitative assessment of blood vessel development. […]

[6] = tested on: HUVEC cells; assay: Cell proliferation assay (CyQUANT NF); assay type: cell-based, human
Protocol: HUVEC cells were plated at density of 1200 cells/well in 96-well poly-D-lysine-coated microplates (Becton Dickinson, Franklin Lakes, N.J. USA). After 24 hours incubation in starvation medium (EBM-2, heparin 0.1%, BSA 0.1%), cells were treated with VEGF165 25 ng/ml (R & D Systems, Minneapolis, Minn., USA), with Pep #3 (10-25-50-100 ng/ml) or Pep RND (100 ng/ml). Cell proliferation was determined by using CyQUANT® NF Cell Proliferation Assay Kit (Molecular Probes, Invitrogen S.R.L., Milano, Italy) at 24, 48 and 72 hour after treatment. CyQUANT® NF assay is based on cellular DNA content measurement via fluorescent dye binding. Because cellular DNA content is highly regulated, it is closely proportional to cell number. Briefly, medium was removed and cells incubated with CyQUANT NF reagent for 1 hour at 37° C. according to the manufacturer's instructions. Plates were then analyzed by using a microplate reader (L55 Luminescence Spectometrer Perkin Elmer Instruments) (excitation: 485 nm, emission: 520 nm).
To evaluate whether peptide #3 induces cellular proliferation, a cell proliferation assay was performed on HUVEC cells treated, in serum deprivation conditions, with pep #3 (10-25-50-100 ng/ml) or Pep RND (100 ng/ml). After 24, 48 and 72 hours of treatment cell proliferation was measured by CyQUANT® NF Cell Proliferation Assay Kit. […] This effect is evident at 24, 48 and 72 hours. […]

[7] = tested on: RB protein; assay: Western blot of RB phosphorylation in HUVEC; assay type: cell-based, human; settings: 24 hours, Pep #3 10-100 ng/ml, VEGF165 25 ng/ml, Pep RND 100 ng/ml
Protocol: FIG. 3—A) HUVEC cells were incubated in starvation medium (EBM-2, 0.1% heparin, 0.1% BSA) alone or in presence of VEGF165 (25 ng/ml) or with indicated concentrations of Pep #3 or Pep RND (100 ng/ml), for 24, 48 and 72 hours at 37° C. in 5% CO2 atmosphere. Cells were then incubated with CyQUANT® NF reagent for 1 hour at 37° C. and fluorescence intensities of quadruplicate samples were measured with a fluorescence microplate reader using excitation at 485 nm and fluorescence detection at 530 nm. In graph values are calculated as % of proliferating cells compared to controls (untreated cells) at 24, 48 and 72 hours. B) ERK1/2 phosphorylation and phospho-RB was evaluated at 24 hr after stimulation with Pep #3 (10-25-50 and 100 ng/ml), VEGF165 (25 ng/ml) and Pep RND (100 ng/ml). Anti-ERK1/2 and anti-GAPDH antibodies were used as loading control
As a marker of cell proliferation, the RB phosphorylation status was also checked in the same experimental conditions. RB protein, in fact, is able to regulate proliferation by controlling cell cycle progression through the restriction point within the G1 and S phases.

KQIMWIKPHQGQWIYTS (prepared by chemical synthesis) [compound 1]
angiogenic biological activity (pro- or anti-) [1]: antiangiogenic activity

KQCLWIRSGDRPWYCTS (disulfide 3-15 (inferred)) [Peptide #4]
effect of VEGF on caspase-3 activity (rescue) when peptide is added [2]: partially abolished
ERK 1/2 activation of VEGF stimulated HUVE cells ([3]; 100 ng/mL, 30 min, VEGF 25 ng/ml): dramatically reduces
biological effect (ERK1/2 activation) on untreated HUVE cells ([3]; 100 ng/mL, 30 min, no VEGF): does not show any biological effect
angiogenic biological activity (pro- or anti-) [1]: antiangiogenic activity

KQLLWIRSGDRPWYYTS (prepared by chemical synthesis) [Peptide #3]
AKT activation (phospho AKT) [4]: displayed ERK1/2 and AKT activation
induction of new vessel formation with respect to negative controls ([5]; 100 ng/ml, FITC-lectin positive cells): 3.8 fold
blood vessels development / new vessel formation in angioreactors ([5]; subcutaneous angioreactors, peptide #3 100 ng/ml): Blood vessels development was observed; also recorded: new vessel formation was observed
cell proliferation at 25 and 50 ng/ml ([6]; 25 and 50 ng/ml, 48 and 72 hours): Considerable effects
cell proliferation ([6]; serum deprivation, 24, 48 and 72 hours, pep #3 10-25-50-100 ng/ml, Pep RND 100 ng/ml): able to induce, in a dose dependent manner, cell proliferation
RB phosphorylation [7]: enhanced RB phosphorylation
caspase-3 activity (rescue from apoptosis) ([2]; 8 hour, without added VEGF, peptide #3 25 ng/ml and 100 ng/ml, vs untreated and Pep-RND-treated cells): significantly decreased
ERK1/2 activation after 24 hours of treatment ([3]; HUVEC, 24 hours, Pep #3 10-100 ng/ml, VEGF165 25 ng/ml): confirmed ERK1/2 activation
ERK1/2 activation (phospho ERK1/2) ([3]; HUVEC, serum deprivation, 15 and 30 min, peptide #3 25-100 ng/ml, Pep-RND 100 ng/ml): displayed ERK1/2 and AKT activation
angiogenic biological activity (pro- or anti-) [1]: proangiogenic biological activity

KQCMWIKPHQGQWTCTS (disulfide 3-15 (inferred)) [compound 2]
effect of VEGF on caspase-3 activity (rescue) when peptide is added [2]: partially abolished
angiogenic biological activity (pro- or anti-) [1]: antiangiogenic activity
